Reference: patent US4207325A, “4-Substituted pyrazoles” (Bayer Aktiengesellschaft, priority 1975, dated 1980)

System: venous thrombs (left jugular vein of rats)
Assay: antithrombotic action in rats: thromb formation in the supercooled left jugular vein, thromb isolated and weighed 4 hours later
Type: in vivo
Details: 10 mg/kg, administered orally
Description: The left jugular vein of rats weighing 170 to 180 g was exposed under ether narcosis and supercooled to -12° C. for 2 minutes to stimulate thromb formation. The thromb was isolated from the vein 4 hours later, and was weighed. The test animals were given the test preparation in tragacanth mucilage immediately before supercooling the wall of the blood vessel. As a result, the protective antithrombotic activity was tested in the first 4 hours after stimulating thromb formation.

Cc1nn(C(C)c2ccc(Cl)c(Cl)c2)c(OC(=O)c2ccc(F)cc2)c1-c1ccccc1 (stereo not drawn) [Example 1, 5-(4-Fluorobenzoyloxy)-3-methyl-phenyl-1-(α-methyl-3,4-dichlorobenzyl)-pyrazole]
Inhibition in % (reduction of thromb size) (4 hour period of action, vs control without active compound): 56%
Thromb size, mean value (4 hours, 12 experiments, control 115 ± 12 (14 experiments)): 51 ± 10 µg
